Reference: patent EP4696306A1, “ADENOSINE TRIPHOSPHATE SECRETION INHIBITOR, HEPATIC STELLATE CELL ACTIVATION INHIBITOR, HEPATIC STELLATE CELL DEACTIVATOR, HEPATIC FIBROSIS THERAPEUTIC AGENT, NON-ALCOHOLIC STEATOHEPATITIS THERAPEUTIC AGENT, PSORIASIS THERAPEUTIC AGENT, AND USE OF COMPOUND FOR PRODUCING ADENOSINE TRIPHOSPHATE …” (KURUME UNIVERSITY, priority 2023, dated 2024)

Key:
catecholamine transport = experiment: Catecholamine (3H-dopamine) transport in chromaffin granule membranes; format: biochemical, bovine
Method: Chromaffin granule membranes were prepared from adrenal glands collected from slaughtered cattle according to Reference A (Nathan Nelson et al., 1988, Chromaffin Granule Proton Pump, Methods in Enzymology, 157, 619-633). Chromaffin granule membranes prepared by sucrose density gradient centrifugation were suspended in 2 ml of SME buffer (20 mM MOPS-tris (pH 7.0), 0.3 M sucrose, 5 mM EDTA, 10 µg/ml leupeptin, and 10 µg/ml pepstatin) + 25% glycerol, and the resulting suspension was aliquoted and stored at -80°C. Under these conditions, the ATP transport activity, the V-ATPase activity, and the catecholamine transport activity remain fully active for at least one year.
A catecholamine transport inhibition experiment was carried out in the same manner as the ATP transport experiment except that the experiment used a measurement liquid containing 20 mM MOPS-tris (pH 7.0), 0.1 M sucrose, 0.1 M potassium chloride, 5 mM magnesium acetate, and about 5 µg of chromaffin granule membranes. To 0.5 ml of the measurement liquid, 2 mM ATP was added, and the resulting mixture was incubated at 30°C for about 5 minutes, followed by addition of^3 [H]-dopamine thereto to a final concentration of 10 µM. After further incubation at 30°C for 15 minutes, 0.2 ml of the reaction liquid was subjected to suction filtration through a Millipore MCE membrane filter with a pore size of 0.45 µm, and the radioactivity on the filter was measured (N = 3). The substrate, ^3[H]-dopamine, was prepared by mixing 3,4-[RING-2,5,6-^3H]dihydroxyphenylethylamine (dopamine) (30 Ci/mmol) (manufactured by New England Nuclear) with dopamine hydrochloride (manufactured by LKT Laboratories) such that a final concentration of 0.1 mM was achieved during the use.
Chromaffin granule membrane vesicles were prepared in the same manner as in Example 5, and uptake of radiolabeled ATP into the vesicles was measured. Transport activity of catecholamine (dopamine) and ATP-dependent proton transport by V-ATPase were also measured in the same manner as in Example 5.

V-ATPase = V-ATPase (Homo sapiens, UniProt P38606); experiment: Inhibitory effect on V-ATPase (data not shown); format: biochemical
V-ATPase, sequence (P38606 whole entry): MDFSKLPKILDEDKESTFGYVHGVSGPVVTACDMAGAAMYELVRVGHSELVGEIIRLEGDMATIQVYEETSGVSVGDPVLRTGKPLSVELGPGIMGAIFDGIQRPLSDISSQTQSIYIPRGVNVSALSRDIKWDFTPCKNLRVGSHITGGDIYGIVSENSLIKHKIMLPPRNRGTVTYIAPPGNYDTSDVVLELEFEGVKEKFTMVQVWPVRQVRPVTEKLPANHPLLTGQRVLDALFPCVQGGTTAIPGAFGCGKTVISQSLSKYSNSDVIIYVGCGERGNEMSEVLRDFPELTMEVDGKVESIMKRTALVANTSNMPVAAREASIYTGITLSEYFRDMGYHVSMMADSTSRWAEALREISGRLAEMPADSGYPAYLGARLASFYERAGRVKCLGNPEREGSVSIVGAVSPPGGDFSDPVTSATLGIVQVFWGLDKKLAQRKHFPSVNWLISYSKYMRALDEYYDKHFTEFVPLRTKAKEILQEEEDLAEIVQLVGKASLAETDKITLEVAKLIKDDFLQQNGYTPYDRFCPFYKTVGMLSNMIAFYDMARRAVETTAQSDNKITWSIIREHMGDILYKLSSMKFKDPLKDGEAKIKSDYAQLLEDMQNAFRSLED

[1] = test system: human epidermal keratinocytes; experiment: Imiquimod-induced ATP secretion in keratinocytes; format: cell-based; settings: 18 hours incubation, imiquimod 15 minutes, N = 8
Method: In the same manner as in Example 1, keratinocytes were cultured at 2.5×10^4 cells/well in a 24-well plate at 37°C in 5% CO2 for 4 days. The medium was replaced with HBSS (manufactured by Gibco) supplemented with 1 µM or 10 µM imeglimin, and incubation was performed at 37°C in 5% CO2 for 18 hours. Thereafter, imiquimod was added thereto at 1 µg/ml or 0.5 µg/ml, and incubation was performed for 15 minutes, followed by collection of 200 µl of the supernatant. The supernatant was immediately treated on a heat block at 95°C for 10 minutes, and ATP in the supernatant was quantified using a ATP Assay Kit - Luminescence (manufactured by Dojindo) (N = 8).

VNUT = biological target: T1, VNUT (Homo sapiens, UniProt Q9BYT1); experiment: Inhibitory effect on VNUT (data not shown); format: biochemical
T1 sequence (Q9BYT1 1-436): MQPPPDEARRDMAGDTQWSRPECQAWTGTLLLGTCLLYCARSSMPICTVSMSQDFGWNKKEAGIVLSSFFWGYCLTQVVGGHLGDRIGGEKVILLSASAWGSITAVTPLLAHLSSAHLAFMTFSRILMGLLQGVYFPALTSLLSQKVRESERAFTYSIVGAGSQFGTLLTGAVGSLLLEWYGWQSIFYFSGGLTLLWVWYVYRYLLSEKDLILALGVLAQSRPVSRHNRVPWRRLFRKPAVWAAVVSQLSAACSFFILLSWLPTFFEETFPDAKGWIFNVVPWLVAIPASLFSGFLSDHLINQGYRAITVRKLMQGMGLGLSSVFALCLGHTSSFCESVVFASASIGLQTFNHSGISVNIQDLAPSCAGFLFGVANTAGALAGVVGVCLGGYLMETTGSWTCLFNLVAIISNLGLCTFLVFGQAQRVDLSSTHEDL

[2] = 1 g of imeglimin hydrochloride daily for one week; cited from earlier work

| Compound | inhibition of catecholamine transport (catecholamine transport; concentrations of up to 5 mM, data not shown) | ATP-dependent dopamine transport activity (catecholamine transport; in the presence of 5 mM PEP, control 11.07 ± 0.129, N = 3) [nmol/mg protein] | inhibitory effect on V-ATPase (V-ATPase) | ATP secretion promoted by imiquimod ([1]; 1 µM imeglimin) | ATP secretion promoted by imiquimod ([1]; 10 µM imeglimin) | inhibitory effect on VNUT (VNUT) | blood imeglimin concentration [2] [µM] |
| --- | --- | --- | --- | --- | --- | --- | --- |
| C=C(OP(=O)(O)O)C(=O)O [PEP, phosphoenolpyruvic acid] | did not inhibit | 12.41 ± 0.250 | – | – | – | – | – |
| C[C@H]1N=C(N(C)C)N=C(N)N1 [imeglimin] | – | – | neither imeglimin nor metformin exhibited a strong inhibitory effect | strongly inhibited | strongly inhibited | neither imeglimin nor metformin exhibited a strong inhibitory effect | 9 |
